The numbers were not newly measured in patent publication US7422607B2, “Anti-calcification treatments for heart valves and vascular grafts” (priority 2004, dated 2008), which cites them from elsewhere.

The conditions of this series: buffer system described by Giradot (U.S. Pat. No. 4,976,733).

On to `CCCCCCCC/C=C\CCCCCCC(N)C(=O)O` (stereo not drawn) [alpha amino oleic acid], for which the “Solubility in the buffer system” value is “extremely low solubility”.
